Results on three compounds are retold here after patent US5230802A, “Extraction process using a novel organic acid as a liquid ion exchanger” (Philip Morris Incorporated, priority 1992, dated 1993).

Several values for one entry are separate records, joined by “and”; a condition that tells them apart may be missing. Equal values may be shown once. Read-outs that look alike come from different tables or passages of the source.

Data set [1] is described as follows: Organic phase/aqueous phase partition coefficient of nicotine in presence of LIX (Table I). Particulars: in words; for solubility of the nicotine-LIX complex: water versus hexane. Format: physicochemical. The source says:
As hereinbefore disclosed, two different experimental criteria can be used to measure the capability of a LIX. First, the organic phase/water phase partition coefficient (PC) can be determined. The partition coefficient, as used herein, can be defined as the ratio of the amount of a substance dissolved in one phase in relation to the amount of the substance dissolved in the second phase. Accordingly, in determining the partition coefficient in the solvent extraction of nicotine from a tobacco processing fluid to another, the ratio would be the concentration of nicotine in the organic (extraction) phase divided by the concentration of nicotine in the aqueous (process) phase. If the partition coefficient increases, i.e., more of the nicotine is soluble in the organic phase, in the presence of a LIX, then this LIX meets one of the objectives for a successful nicotine transfer agent.
Table I is a presentation of the partition coefficients of various liquid ion exchangers, including control experiments where no LIX are utilized. […] Capabilities of the LIX as well as the components of the various phases must all be considered.

The conditions of data set [2]: 2% LIX in Isopar K, 1.5 m2 PAN. An excerpt: (§1) The apparatus used is a Model MSX-750 laboratory unit purchased from Sepracor, Inc., Marlborough, Mass.; it is a 3-panel, 3-loop, 2-membrane operation. As shown in the Figure, each panel has a solvent circulation pump (1), pressure gauge, flow rotometer, and multiple valves for control of the solvent input and output (not shown). A separate pump controller (not shown) provides variable speed and on/off controls for all three panels. Analysis ports are built into the unit to allow pH readings at the feedstock (2)- and recovery panels (3)- and automatic pH titration at the recovery solution panel. Sample aliquots can be removed from all three system solvents in line (4)- or from the reservoirs (5). The membrane modules (6) contain a hollow fiber bundle in a plastic cartridge with connectors to allow flow through the hollow fibers (lumen) with one solvent and simultaneous flow around the fibers (shell) with an "exchanging" solvent (not shown). The membrane fibers used were either regenerated cellulose (RC) or polyacrylonitrile (PAN) and were 0.5-1.5 square meters in surface area.
For this membrane separation process, solutions are recirculated at 100-900 ml/min. The feedstock reservoir volume is between 0.5 L and 8.0 L of aqueous solution which is 0.1-10.0% dissolved base, e.g., pyridine or nicotine, at a pH between 4 and 10. The feedstock solution can also contain other compounds, e.g., tobacco components. The organic solvent (OS) reservoir contains from 300-1000 mL of a water-immiscible solvent like hexane, heptane, octane, nonane, decane or Isopar K (Exxon) to which is added 0.1-10.0% of LIX. The OS is recirculated in the center panel through the lumen of both membrane modules and is always kept at 2-10 psi higher than the aqueous phases to maintain phase separation. The aqueous recovery solution is maintained at a constant pH (1.0-4.0) via an automatic titration unit (Metrohm Model 665 Dosimat with Model 614 Impulsomat and Model 632 Digital-pH-Meter, Metrohm Ltd., CH-9100 Herisau, Switzerland) using 1.0 M sulfuric acid to provide a pH differential and as a collection sink for the base being transferred, e.g., pyridine or nicotine.
Seven consecutive runs were performed with the apparatus outlined in Example XII without the use of a LIX in the OS, changing to a fresh 1 liter 0.32% nicotine FS each run and leaving the RS alone to concentrate the nicotine recovered (Section A). Prior to run 8, fresh FS, OS and RS solutions were placed within the system. For the five consecutive runs 8-12, 2% LIX (Example X) in Isopar K was used as the OS, 0.32% nicotine in deionized water for FS (one liter fresh for each run), and a fresh deionized water RS was left in place for all five runs to concentrate the nicotine (Section B). The volume of the RS increased during the runs 8-12 because the nicotine was transferred into it and because acid solution was pumped into it to maintain a pH of ca. 3. Then three additional runs 13-15 were made using the same OS and the same RS (to form a more concentrated nicotine solution) from Section B; 4 L FS solutions of 0.32% nicotine in deionized water (a fresh solution each run) were used (Section C). […] The OS continues to operate without replacement.

The conditions of data set [3]: 180 min; 5% LIX, 20 mM nicotine, 4 L FS; ND = None detected.
Description: as §1
For this membrane separation process, solutions are recirculated at 100-900 ml/min. The feedstock reservoir volume is between 0.5 L and 8.0 L of aqueous solution which is 0.1-10.0% dissolved base, e.g., pyridine or nicotine, at a pH between 4 and 10. […]

In the case of `CCCCC(CC)COC(=O)[C@H](OC(C)=O)[C@@H](OC(C)=O)C(=O)O` (mixture of isomers) [Example III, (2R, 3R, 2'R)- and (2R, 3R, 2'S)-Mono(2'-Ethylhexyl) 2,3-Bis(acetyloxy)butanedioate], in data set [1], the “partition coefficient compared with no LIX present” value is listed as “less than without any LIX present” and the “solubility of the nicotine-LIX complex” value is given as “more water soluble than hexane soluble”.
Turning to `CCCCC(CC)COC(=O)[C@H](OC(=O)CC)[C@@H](OC(=O)CC)C(=O)O` (mixture of isomers) [Example V, (2R, 3R, 2'R)- and (2R, 3R, 2'S)-Mono(2'-Ethylhexyl) 2,3-Bis(propionyloxy)butanedioate], in data set [1], the “partition coefficient compared with no LIX present” value is “less than without any LIX present” and the “solubility of the nicotine-LIX complex” value is recorded as “more water soluble than hexane soluble”.
As to `CCCCC(CC)COC(=O)[C@H](OC(=O)C(CC)CCCC)[C@@H](OC(=O)C(CC)CCCC)C(=O)O` (stereo partly drawn) [Example X, (2R, 3R, 2'.xi., 2''.xi., 2'''.xi.)-Mono(2'-Ethylhexyl) 2,3-Bis(2-ethylhexanoyloxy)butanedioate], the “Percent (%) nicotine remaining in FS” value in data set [2] (Section B, 0 min, 1 liter FS at 0.32% nicotine) was 100%; in data set [2] (Section B, 15 min, 1 liter FS at 0.32% nicotine), 49% and 50%; in data set [2] (Section B, 30 min, 1 liter FS at 0.32% nicotine), 37% and 36% and 35%; in data set [2] (Section B, 45 min, 1 liter FS at 0.32% nicotine) it was 23% and 24%; in data set [2] (Section B, 60 min, 1 liter FS at 0.32% nicotine), 14% and 13%; in data set [2] (Section C, 0 min, 4 liters FS at 0.32% nicotine), 100%. Further, the “Percent (%) nicotine remaining in FS” value in data set [2] (Section C, 60 min, 4 liters FS at 0.32% nicotine) was 51%; in data set [2] (Section C, 120 min, 4 liters FS at 0.32% nicotine), 35% and 37%; in data set [2] (Section C, 180 min, 4 liters FS at 0.32% nicotine) it was 21% and 23%; in data set [2] (Section C, 240 min, 4 liters FS at 0.32% nicotine), 13%. Besides, the “Percent (%) remaining in FS” value in data set [3] was found to be 10.0%.
